Results from patent US8367655B2, “Pyridoindolobenzox—and thiazepine derivatives and uses thereof” (Daya Drug Discoveries, Inc., priority 2009, dated 2013).

Columns and labels:
rats [1] = assay: Amphetamine-induced sensorimotor gating deficits (prepulse inhibition, PPI); assay type: in vivo; settings: 1 mg/kg ip, amphetamine 3 mg/kg ip, 120 dB pulse, 71 dB pre-pulse, p<0.01
Description: Effects of compound 2 on amphetamine-induced sensorimotor gating deficits (FIG. 4 Table). Once the compound 2 dose range was determined by motor assessments, a separate group of rats were used to study PPI. Rats were treated with vehicle (75% DMSO) or DDD-016 in the DMSO vehicle; 30 min later amphetamine (3 mg/kg ip) or saline was administered, and the startle session was initiated after an additional 30 min. (The 3 mg/kg dose of amphetamine is sufficient to induced robust deficits in PPI; 1 mg/kg is subtrheshold; data not shown.) Shown are startle data from a 120 dB pulse, preceded 100 ms by a 71 dB pre-pulse.

5-HT2A receptor = 5-HT2A receptor (Homo sapiens, UniProt P28223); assay: Serotonin and dopamine receptor binding: 5-HT2A
rats [2] = assay: Amphetamine-induced motor activity; assay type: in vivo
Description: Effects of compound 2 on amphetamine-induced motor activity (FIG. 4 Graph). All rats were habituated to the motor box for 30 min followed by injection of compound 2 or vehicle. After 30 min all rats were injected with 1 mg/kg, i.p. amphetamine (a dose that is known to elevate locomotion in rats) and their motor activity was recorded for 2 hr.

5-HT2C receptor = target: T1, 5-HT2C receptor (Homo sapiens, UniProt P28335); assay: Serotonin and dopamine receptor binding: 5-HT2C
T1 sequence (P28335 33-458): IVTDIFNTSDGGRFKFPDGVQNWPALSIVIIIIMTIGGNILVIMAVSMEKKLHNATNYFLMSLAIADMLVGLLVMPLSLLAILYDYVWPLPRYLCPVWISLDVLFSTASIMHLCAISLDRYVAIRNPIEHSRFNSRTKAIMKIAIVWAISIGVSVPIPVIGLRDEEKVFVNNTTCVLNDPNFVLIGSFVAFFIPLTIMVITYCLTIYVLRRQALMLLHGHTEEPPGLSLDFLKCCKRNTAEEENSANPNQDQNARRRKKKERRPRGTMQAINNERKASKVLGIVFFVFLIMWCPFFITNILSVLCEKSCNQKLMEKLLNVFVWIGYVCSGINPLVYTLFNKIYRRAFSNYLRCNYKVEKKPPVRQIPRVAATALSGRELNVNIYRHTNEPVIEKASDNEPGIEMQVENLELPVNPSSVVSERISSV

D2 receptor = D2 receptor (Homo sapiens, UniProt P14416); assay: Serotonin and dopamine receptor binding: D2
rats [3] = assay: Pilot dose-selection study (catalepsy, locomotion); assay type: in vivo

Sequence of D2 receptor (P14416 whole entry): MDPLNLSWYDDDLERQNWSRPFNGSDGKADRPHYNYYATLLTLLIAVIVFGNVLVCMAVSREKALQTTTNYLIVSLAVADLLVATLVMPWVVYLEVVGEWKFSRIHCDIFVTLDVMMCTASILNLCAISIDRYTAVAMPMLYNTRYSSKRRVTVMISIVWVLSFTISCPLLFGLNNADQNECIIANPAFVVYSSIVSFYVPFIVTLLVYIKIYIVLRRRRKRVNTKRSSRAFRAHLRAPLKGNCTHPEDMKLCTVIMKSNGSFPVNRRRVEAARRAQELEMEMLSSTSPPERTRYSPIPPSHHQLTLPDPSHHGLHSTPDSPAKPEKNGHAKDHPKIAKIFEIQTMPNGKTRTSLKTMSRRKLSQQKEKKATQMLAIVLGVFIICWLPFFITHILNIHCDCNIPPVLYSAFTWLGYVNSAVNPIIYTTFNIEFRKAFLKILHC
Sequence of 5-HT2A receptor (P28223 whole entry): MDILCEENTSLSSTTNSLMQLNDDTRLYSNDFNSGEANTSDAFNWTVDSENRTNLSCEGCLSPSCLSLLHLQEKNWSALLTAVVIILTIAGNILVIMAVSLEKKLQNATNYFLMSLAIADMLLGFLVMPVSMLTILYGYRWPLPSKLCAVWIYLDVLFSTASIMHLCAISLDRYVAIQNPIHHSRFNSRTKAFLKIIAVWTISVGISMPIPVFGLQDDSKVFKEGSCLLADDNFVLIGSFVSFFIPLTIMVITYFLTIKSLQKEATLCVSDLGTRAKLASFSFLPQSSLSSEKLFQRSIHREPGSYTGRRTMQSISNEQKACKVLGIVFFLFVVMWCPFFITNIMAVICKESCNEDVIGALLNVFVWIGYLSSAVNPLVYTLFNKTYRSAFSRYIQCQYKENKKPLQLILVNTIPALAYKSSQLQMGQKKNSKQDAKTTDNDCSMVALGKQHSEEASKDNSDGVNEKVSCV

SMILES | IC50 (5-HT2A receptor) | IC50 (5-HT2C receptor) | IC50 (D2 receptor) | effect on amphetamine-induced % PPI deficit (rats [1]) | horizontal activity, comparison of doses (rats [2]; 3 mg/kg vs 10 mg/kg, ANOVA with post hoc Newman Keuls, p<0.05) | effect on amphetamine-induced motor activity (rats [2]; 10 mg/kg, 30 min before 1 mg/kg i.p. amphetamine, activity recorded 2 hr) | locomotor effect (rats [3]; 3 mg/kg, vs vehicle (75% DMSO)) | locomotor effect (rats [3]; 10 mg/kg) | catalepsy (rats [3]; 30 mg/kg ip, without a loss of right reflex) | receptor binding activity (in words) (5-HT2A receptor; stated jointly for 5-HT2A, 5-HT2C and D2 receptors)
CN1CCc2c(c3cccc4c3n2-c2ccccc2CS4)C1 [Compound 2] | 1 nM | 10 nM | 80 nM | blunted this deficit | difference between 3 mg/kg and 10 mg/kg | trend for 10 mg/kg of 2 to reduce the effects of amphetamine | did not differentiate from vehicle | Some locomotor reduction | robust catalepsy | 
CN1CC[C@H]2[C@@H](C1)c1cccc3c1N2c1ccccc1CS3 [Compound 3] | 5 nM | 15 nM | 500 nM |  |  |  |  |  |  | 
CN1CC[C@@H]2[C@@H](C1)c1cccc3c1N2c1ccccc1CS3 [Compound 4] | 3 nM | 5 nM | 20 nM |  |  |  |  |  |  | most potent amongst all

Continued, in another order:

IC50 (5-HT2A receptor) | IC50 (5-HT2C receptor) | IC50 (D2 receptor) | SMILES | effect on amphetamine-induced % PPI deficit (rats [1]) | horizontal activity, comparison of doses (rats [2]; 3 mg/kg vs 10 mg/kg, ANOVA with post hoc Newman Keuls, p<0.05) | effect on amphetamine-induced motor activity (rats [2]; 10 mg/kg, 30 min before 1 mg/kg i.p. amphetamine, activity recorded 2 hr) | locomotor effect (rats [3]; 3 mg/kg, vs vehicle (75% DMSO)) | locomotor effect (rats [3]; 10 mg/kg) | catalepsy (rats [3]; 30 mg/kg ip, without a loss of right reflex) | receptor binding activity (in words) (5-HT2A receptor; stated jointly for 5-HT2A, 5-HT2C and D2 receptors)
5 nM | 80 nM | 8 nM | O=C(CCCN1CCc2c(c3cccc4c3n2-c2ccccc2CS4)C1)c1ccc(F)cc1 [Compound 6] |  |  |  |  |  |  | 
8 nM | 50 nM | 500 nM | CN1CCc2c(c3cccc4c3n2-c2ccccc2CO4)C1 [Compound 9] |  |  |  |  |  |  | 
